The text below walks through data of patent EP2818472A1, “Imidazo[4,5-c]pyridine and pyrrolo[3,2-c]pyridine compounds as G-protein-coupled receptor kinase 5 (GRK5) modulators” (Max-Planck-Gesellschaft zur Förderung der Wissenschaften …, priority 2013, dated 2014).

Each structure is given as a SMILES string. Some results are limits rather than exact numbers.

The assay concerns beta-TC6 cells. Put plainly: Insulin HTRF assay (relative activity Ar) in beta-TC6 cells. It is filed as cell-based, mouse. The following applies: Mus musculus, Beta-TC6, 4 h, insulin HTRF, supernatant of beta-TC6 cells, incubation with test compound at 37°C for 2, 3, 4h; read-out: Ar (relative activity). A digest of the protocol:
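beta-TC6 cells (15k/well, seeded 24 or 48 h) washed, then exposed to compound in induction buffer (0.5% DMSO final) for 2, 3 or 4 h at 37°C.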
As to `CC(=O)Nc1ccc(Nc2cc3c(cn2)nc(NCc2cccc(C)c2)n3C)cc1` [Compound 576, N-[4-[[1-methyl-2-(m-tolylmethylamino)imidazo[4,5-c]pyridin-6-yl]amino]phenyl]acetamide], the Emax was 50 to 100%.

Consider `COc1ccc(Nc2nccc3c2cc(-c2ccsc2)n3C)cc1` [Compound 279, N-(4-methoxyphenyl)-1-methyl-2-(3-thienyl)pyrrolo[3,2-c]pyridin-4-amine], for which the Emax was in the range of 30 to 50%.

Turning to `COc1ccc(Nc2nccc3[nH]c(-c4cccc(F)c4)nc23)cc1` [Compound 407, 2-(3-fluorophenyl)-N-(4-methoxyphenyl)-1H-imidazo[4,5-c]pyridin-4-amine], the Emax was in the range of 50 to 100%.

`Cn1cc(-c2cc3cnc(Nc4cccc(OC(F)(F)F)c4)cc3n2C)cn1` [Compound 146, 1-methyl-2-(1-methylpyrazol-4-yl)-N-[3-(trifluoromethoxy)phenyl]pyrrolo[3,2-c]pyridin-6-amine]: the Emax lay within 30 to 50%.

In the case of `COc1cc(Nc2cc3c(cn2)nc(-c2ccncc2)n3C)cc(OC)c1OC` [Compound 724, 1-methyl-2-(4-pyridyl)-N-(3,4,5-trimethoxyphenyl)imidazo[4,5-c]pyridin-6-amine], the Emax lay in the range of 30 to 50%.

For `c1ccc(Cn2c(-c3cccnc3)cc3cnc(Nc4ccncn4)cc32)cc1` [Compound 99, 1-benzyl-2-(3-pyridyl)-N-pyrimidin-4-yl-pyrrolo[3,2-c]pyridin-6-amine], the Emax lay in the range of 30 to 50%.

As for `CNc1nc2cnc(-c3cccc(NS(C)(=O)=O)c3)cc2n1-c1cccc(F)c1` [Compound 768, N-[3-[1-(3-fluorophenyl)-2-(methylamino)imidazo[4,5-c]pyridin-6-yl]phenyl]methanesulfonamide], the Emax lay within 0 to 30%.

With `CC(=O)N(C)c1cccc(-c2cc3cnc(N4CCOCC4)cc3n2C)c1` [Compound 171, N-methyl-N-[3-(1-methyl-6-morpholino-pyrrolo[3,2-c]pyridin-2-yl)phenyl]acetamide], the Emax fell in the range of 50 to 100%.

For the compound `Cn1cc(-c2cc3cnc(Nc4ccccc4)cc3n2C)cn1` [Compound 132, 1-methyl-2-(1-methylpyrazol-4-yl)-N-phenyl-pyrrolo[3,2-c]pyridin-6-amine], the Emax is 50 to 100%.

On to `COc1cc(OC)cc(-c2cc3c(Nc4ccncc4)nccc3[nH]2)c1` [Compound 291, 2-(3,5-dimethoxyphenyl)-N-(4-pyridyl)-1H-pyrrolo[3,2-c]pyridin-4-amine], for which the Emax was in the range of 50 to 100%.

`CNc1nc2cnc(-c3cccc(C(=O)NCCO)c3)cc2n1Cc1ccccc1` [Compound 794, 3-[1-benzyl-2-(methylamino)imidazo[4,5-c]pyridin-6-yl]-N-(2-hydroxyethyl)benzamide]: the Emax lay in the range of 0 to 30%.

Consider `COc1ccc(Nc2nccc3[nH]c(-c4cccc(OC)c4F)nc23)cn1` [Compound 470, 2-(2-fluoro-3-methoxy-phenyl)-N-(6-methoxy-3-pyridyl)-1H-imidazo[4,5-c]pyridin-4-amine], for which the Emax was in the range of 30 to 50%.

Consider `CNc1nc2cnc(-c3ccc(NC(C)=O)cc3)cc2n1Cc1ccccc1` [Compound 799, N-[4-[1-benzyl-2-(methylamino)imidazo[4,5-c]pyridin-6-yl]phenyl]acetamide], for which the Emax fell in the range of 0 to 30%.

As to `COc1ccc(Nc2cc3c(cn2)cc(-c2cccnc2)n3C)c(OC)c1` [Compound 83, N-(2,4-dimethoxyphenyl)-1-methyl-2-(3-pyridyl)pyrrolo[3,2-c]pyridin-6-amine], the Emax was 50 to 100%.

In the case of `Cn1c(-c2ccccc2)nc2cnc(-c3ccc(N)nc3)cc21` [Compound 735, 5-(1-methyl-2-phenyl-imidazo[4,5-c]pyridin-6-yl)pyridin-2-amine], the Emax fell in the range of 30 to 50%.

`Cn1c(NCC2CCCO2)nc2cnc(-c3ccc4ccccc4c3)cc21` (centres unmarked) [Compound 850, 1-methyl-6-(2-naphthyl)-N-(tetrahydrofuran-2-ylmethyl)imidazo[4,5-c]pyridin-2-amine]: the Emax is 30 to 50%.

`COc1ccc(-c2cc3c(cn2)ncn3-c2cccc(C(F)(F)F)c2)cc1OC` [Compound 734, 6-(3,4-dimethoxyphenyl)-1-[3-(trifluoromethyl)phenyl]imidazo[4,5-c]pyridine]: the Emax was in the range of 30 to 50%.

Consider `CC(=O)Nc1ccc(Nc2cc3c(cn2)ncn3C)cc1` [Compound 726, N-[4-[(1-methylimidazo[4,5-c]pyridin-6-yl)amino]phenyl]acetamide], for which the Emax lay within 50 to 100%.

In the case of `CNc1nc2cnc(Nc3ccc(C(N)=O)cc3)cc2n1-c1ccccc1` [Compound 504, 4-[[2-(methylamino)-1-phenyl-imidazo[4,5-c]pyridin-6-yl]amino]benzamide], the Emax is 50 to 100%.

As to `COCCNC(=O)c1cccc(-c2nc3c(Nc4cccc(OC)c4)nccc3[nH]2)c1` [Compound 386, 3-[4-(3-methoxyanilino)-1H-imidazo[4,5-c]pyridin-2-yl]-N-(2-methoxyethyl)benzamide], the Emax is 50 to 100%.

For `CNc1nc2cnc(Nc3cc(OC)c(OC)c(OC)c3)cc2n1Cc1ccccc1` [Compound 526, 1-benzyl-N2-methyl-N6-(3,4,5-trimethoxyphenyl)imidazo[4,5-c]pyridine-2,6-diamine], the Emax was in the range of 50 to 100%.

In the case of `CN(C)C(=O)c1ccc(Nc2cc3c(cn2)nc(-c2cccc(F)c2)n3C)cc1` [Compound 715, 4-[[2-(3-fluorophenyl)-1-methyl-imidazo[4,5-c]pyridin-6-yl]amino]-N,N-dimethyl-benzamide], the Emax fell in the range of 30 to 50%.

With `COc1cccc(Nc2nccc3c2cc(-c2ccc(C(=O)N(C)C)cc2)n3C)c1` [Compound 212, 4-[4-(3-methoxyanilino)-1-methyl-pyrrolo[3,2-c]pyridin-2-yl]-N,N-dimethyl-benzamide], the Emax is 30 to 50%.

Turning to `CC(=O)Nc1cccc(Nc2nccc3c2cc(-c2cccnc2)n3C)c1` [Compound 245, N-[3-[[1-methyl-2-(3-pyridyl)pyrrolo[3,2-c]pyridin-4-yl]amino]phenyl]acetamide], the Emax was 50 to 100%.

Regarding `c1cc2[nH]c(-c3ccc4c(c3)OCCO4)nc2c(NCC2CC2)n1` [Compound 419, N-(cyclopropylmethyl)-2-(2,3-dihydro-1,4-benzodioxin-6-yl)-1H-imidazo[4,5-c]pyridin-4-amine], the Emax was 50 to 100%.

For `COc1cc(-c2cc3c(cn2)ncn3Cc2ccc(OC)c(OC)c2)ccc1O` [Compound 739, 4-[1-[(3,4-dimethoxyphenyl)methyl]imidazo[4,5-c]pyridin-6-yl]-2-methoxy-phenol], the Emax lay within 30 to 50%.

Turning to `COc1cncc(-c2cc3[nH]c(NCC4CCCO4)nc3cn2)c1` (centres unmarked) [Compound 881, 6-(5-methoxy-3-pyridyl)-N-(tetrahydrofuran-2-ylmethyl)-1H-imidazo[4,5-c]pyridin-2-amine], the Emax fell in the range of 0 to 30%.

As for `CC(C)Oc1ccc(Nc2cc3[nH]c(-c4cncn4C)cc3cn2)cc1` [Compound 109, N-(4-isopropoxyphenyl)-2-(3-methylimidazol-4-yl)-1H-pyrrolo[3,2-c]pyridin-6-amine], the Emax lay in the range of 50 to 100%.

Regarding `COc1ccc(Nc2nccc3[nH]c(-c4ccc(OC)c(OC)c4)nc23)cc1` [Compound 345, 2-(3,4-dimethoxyphenyl)-N-(4-methoxyphenyl)-1H-imidazo[4,5-c]pyridin-4-amine], the Emax was above 100%.

Take `Cn1cc(-c2cc3c(Nc4cccnc4)nccc3n2C)cn1` [Compound 247, 1-methyl-2-(1-methylpyrazol-4-yl)-N-(3-pyridyl)pyrrolo[3,2-c]pyridin-4-amine]: the Emax is above 100%.

`Oc1cccc(-c2nc3c(N4CCOCC4)nccc3[nH]2)c1` [Compound 363, 3-(4-morpholino-1H-imidazo[4,5-c]pyridin-2-yl)phenol]: the Emax lay in the range of 30 to 50%.

For the compound `CN(C)C(=O)c1ccc(-c2cc3cnc(Nc4cccc(O)c4)cc3[nH]2)cc1` [Compound 31, 4-[6-(3-hydroxyanilino)-1H-pyrrolo[3,2-c]pyridin-2-yl]-N,N-dimethyl-benzamide], the Emax was above 100%.

On to `COc1cc(Nc2cc3[nH]c(-c4cncn4C)cc3cn2)cc(OC)c1OC` [Compound 100, 2-(3-methylimidazol-4-yl)-N-(3,4,5-trimethoxyphenyl)-1H-pyrrolo[3,2-c]pyridin-6-amine], for which the Emax is above 100%.

As to `COc1ccc(-c2nc3cnc(Nc4ccc(C(N)=O)cc4)cc3n2C)cc1OC` [Compound 719, 4-[[2-(3,4-dimethoxyphenyl)-1-methyl-imidazo[4,5-c]pyridin-6-yl]amino]benzamide], the Emax was 30 to 50%.

Regarding `Cn1c(NCC2CC2)nc2cnc(-c3ccsc3)cc21` [Compound 596, N-(cyclopropylmethyl)-1-methyl-6-(3-thienyl)imidazo[4,5-c]pyridin-2-amine], the Emax was in the range of 50 to 100%.

`COc1ccc(CNc2nc3cnc(Nc4ccc(OC)c(OC)c4)cc3n2C)cc1OC` [Compound 603, N6-(3,4-dimethoxyphenyl)-N2-[(3,4-dimethoxyphenyl)methyl]-1-methyl-imidazo[4,5-c]pyridine-2,6-diamine]: the Emax lay in the range of 50 to 100%.

In the case of `FC(F)(F)c1cccc(-c2nc3c(NCCN4CCOCC4)nccc3[nH]2)c1` [Compound 357, N-(2-morpholinoethyl)-2-[3-(trifluoromethyl)phenyl]-1H-imidazo[4,5-c]pyridin-4-amine], the Emax was in the range of 30 to 50%.

Turning to `Oc1cccc(Nc2nccc3[nH]c(-c4ccncc4)nc23)c1` [Compound 431, 3-[[2-(4-pyridyl)-1H-imidazo[4,5-c]pyridin-4-yl]amino]phenol], the Emax is 50 to 100%.

Consider `COc1cccc(-c2cc3c(Nc4ccc(C(=O)N(C)C)cc4)nccc3[nH]2)c1` [Compound 313, 4-[[2-(3-methoxyphenyl)-1H-pyrrolo[3,2-c]pyridin-4-yl]amino]-N,N-dimethyl-benzamide], for which the Emax is above 100%.

For `COc1ccc(Nc2nccc3[nH]c(-c4ccc(C)cc4)nc23)cc1OC` [Compound 378, N-(3,4-dimethoxyphenyl)-2-(p-tolyl)-1H-imidazo[4,5-c]pyridin-4-amine], the Emax is 50 to 100%.

As for `Cn1c(-c2cccnc2)cc2cnc(Nc3cccnc3)cc21` [Compound 87, 1-methyl-N,2-bis(3-pyridyl)pyrrolo[3,2-c]pyridin-6-amine], the Emax was 50 to 100%.
